Some test systems named below: OVCAR-5 ovarian; HCT-116 colon; MOLT-4 leukemia; SNB-19 CNS; RXF 393 renal; NCI/ADR-RES ovarian; SK-MEL-28 melanoma; NCI-H522 lung; T-47D breast; U251 CNS; NCI-H226 lung; SK-MEL-5 melanoma; HOP-92 NSCLC; SN12C renal; OVCAR-3 ovarian; NCI-H23 lung; PC-3 prostate; RPMI-8226 leukemia.
Holding throughout (assay): DTP human tumour cell line panel, 48 h

Each structure is given as a SMILES string.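 Cultured in 96-well plates, cells were exposed to test compound for 48 hours across five concentrations. TGI denotes the concentration required for complete inhibition of growth.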 Where only a bound is given, the exact number is not on record here.

As a reminder, the TGI is the concentration giving total growth inhibition. Read a high TGI as less potent growth arrest.

With `CCOC(=O)CC1c2ccc(O)cc2OC(=O)C1c1ccc([N+](=O)[O-])cc1` (configuration not stated), the concentration for total growth inhibition (TGI) with OVCAR-5 ovarian is greater than 100 µM; with HCT-116 colon, 82.3 µM; in the test on MOLT-4 leukemia it was 78.6 µM; in the test on SNB-19 CNS it was greater than 100 µM; in the test on RXF 393 renal it was 64.4 µM; with NCI/ADR-RES ovarian, 72.6 µM. Moreover, the TGI in the test with SK-MEL-28 melanoma was greater than 100 µM; in the test with NCI-H522 lung, 66.5 µM; in the test on T-47D breast it was 60 µM; in the test with U251 CNS, greater than 100 µM; in the test on NCI-H226 lung, 58.4 µM; in the test on SK-MEL-5 melanoma, 29 µM. In addition, the TGI is 63.2 µM in the test with HOP-92 NSCLC; 81.3 µM in the test on SN12C renal; greater than 100 µM with OVCAR-3 ovarian; 96.7 µM in the test with NCI-H23 lung; 67.2 µM in the test on PC-3 prostate.

In the case of `CSC1=C(SC)SC(=C2SC3=C(SC(=C4SCCS4)S3)S2)S1`, the TGI in the test on OVCAR-5 ovarian, in the test on HCT-116 colon, in the test with MOLT-4 leukemia, in the test with SNB-19 CNS, with NCI/ADR-RES ovarian and in the test on SK-MEL-28 melanoma was greater than 100 µM each time. In addition, the TGI in the test with NCI-H522 lung, with T-47D breast, in the test on U251 CNS, with NCI-H226 lung, in the test on RPMI-8226 leukemia and with SK-MEL-5 melanoma was greater than 100 µM throughout. In addition, the TGI in the test with HOP-92 NSCLC, in the test with SN12C renal, in the test on OVCAR-3 ovarian, in the test on NCI-H23 lung and in the test on PC-3 prostate was greater than 100 µM each time.

`Cc1cccc(/C=N/NC(=S)NCCc2ccccn2)n1`: the TGI in the test on OVCAR-5 ovarian was greater than 100 µM; with HCT-116 colon, greater than 100 µM; in the test with MOLT-4 leukemia it was greater than 100 µM; in the test on SNB-19 CNS, greater than 100 µM; in the test with NCI/ADR-RES ovarian it was greater than 73.7 µM; with SK-MEL-28 melanoma, greater than 100 µM. Besides, the TGI is greater than 100 µM with NCI-H522 lung; greater than 100 µM in the test on T-47D breast; 92.1 µM with U251 CNS; 66.3 µM in the test on NCI-H226 lung; greater than 93 µM in the test with RPMI-8226 leukemia; greater than 100 µM in the test on SK-MEL-5 melanoma. The TGI with HOP-92 NSCLC, in the test with SN12C renal, in the test with OVCAR-3 ovarian, in the test on NCI-H23 lung and in the test with PC-3 prostate was greater than 100 µM each time.

In the case of `CC1=C(Br)C(Br)=C(C)S1=O`, the TGI was 37.4 µM in the test with OVCAR-5 ovarian; 18.2 µM with HCT-116 colon; 33.4 µM in the test with MOLT-4 leukemia; 63.7 µM in the test with SNB-19 CNS; greater than 100 µM in the test with NCI/ADR-RES ovarian; 41.9 µM in the test with SK-MEL-28 melanoma. Moreover, the TGI was 23.8 µM in the test on NCI-H522 lung; greater than 100 µM in the test with T-47D breast; 26 µM in the test with U251 CNS; 50.2 µM in the test on NCI-H226 lung; 24 µM in the test with RPMI-8226 leukemia; 22.1 µM in the test on SK-MEL-5 melanoma. In addition, the TGI in the test on HOP-92 NSCLC is greater than 100 µM; in the test with SN12C renal it was 30.6 µM; in the test on OVCAR-3 ovarian, 23.9 µM; in the test on NCI-H23 lung, greater than 100 µM; with PC-3 prostate, 48.8 µM.

Consider `CCC1OC2C(CC=C(C)C)=C3OC(C)(O)C(C)(CC)C(OC(=O)c4ccccc4)C3=C3OC(=O)C=C1C32` (configuration not stated), for which the TGI with OVCAR-5 ovarian is greater than 100 µM; in the test with HCT-116 colon it was greater than 100 µM; in the test on MOLT-4 leukemia, greater than 100 µM; in the test with SNB-19 CNS, 94.6 µM; in the test on NCI/ADR-RES ovarian it was greater than 100 µM; with SK-MEL-28 melanoma, greater than 100 µM. Moreover, the TGI with NCI-H522 lung was 47.6 µM; in the test on T-47D breast, greater than 100 µM; in the test on U251 CNS, greater than 100 µM; with RPMI-8226 leukemia it was greater than 100 µM; with SK-MEL-5 melanoma, 43.7 µM; in the test on HOP-92 NSCLC, greater than 100 µM. Further, the TGI in the test on SN12C renal was 79 µM; in the test with OVCAR-3 ovarian, greater than 100 µM; in the test with NCI-H23 lung, greater than 100 µM; in the test with PC-3 prostate, greater than 100 µM.

In the case of `N#CC1Nc2ccccc2[C@@H](O)C1O` (some centres not stated), the TGI with OVCAR-5 ovarian, in the test with HCT-116 colon, in the test on MOLT-4 leukemia, in the test on RXF 393 renal, in the test with NCI/ADR-RES ovarian and in the test on SK-MEL-28 melanoma was greater than 100 µM in each case. For the same compound, the TGI with T-47D breast, with U251 CNS, in the test on RPMI-8226 leukemia, with SK-MEL-5 melanoma, in the test on HOP-92 NSCLC and in the test on SN12C renal was greater than 100 µM throughout. Also, the TGI in the test with OVCAR-3 ovarian, with NCI-H23 lung and with PC-3 prostate was greater than 100 µM each time.

With `C=CCN1C[C@H](C)N([C@H](c2ccc(C(=O)N(CC)CCO)cc2)c2cccc(OC)c2)C[C@H]1C`, the TGI in the test on OVCAR-5 ovarian, in the test on HCT-116 colon, in the test with MOLT-4 leukemia, in the test with SNB-19 CNS, in the test with NCI/ADR-RES ovarian and in the test with SK-MEL-28 melanoma was greater than 100 µM throughout. Besides, the TGI in the test with NCI-H522 lung, with T-47D breast, in the test on U251 CNS, in the test with NCI-H226 lung, in the test with RPMI-8226 leukemia and in the test with SK-MEL-5 melanoma was greater than 100 µM throughout. Moreover, the TGI in the test on HOP-92 NSCLC is greater than 100 µM; in the test with SN12C renal, greater than 100 µM; with OVCAR-3 ovarian it was 54.6 µM; in the test with NCI-H23 lung, greater than 100 µM; in the test with PC-3 prostate, greater than 100 µM.

For `CC(=O)OC1CC2c3cccc4c3C(CC2N(C)C1=O)CN4C(=O)c1ccccc1` (configuration not stated), the TGI with OVCAR-5 ovarian is greater than 100 µM; with HCT-116 colon, 32.8 µM; in the test with MOLT-4 leukemia it was greater than 100 µM; with SNB-19 CNS it was greater than 100 µM; with NCI/ADR-RES ovarian it was 45.1 µM; in the test on SK-MEL-28 melanoma, 77.1 µM. Besides, the TGI was 34.4 µM with NCI-H522 lung; greater than 100 µM with T-47D breast; 53.3 µM in the test with U251 CNS; 96.5 µM in the test on NCI-H226 lung; greater than 100 µM with RPMI-8226 leukemia; 29.1 µM in the test on SK-MEL-5 melanoma. The TGI with HOP-92 NSCLC came out at 34.8 µM; in the test with SN12C renal, 56.8 µM; in the test on OVCAR-3 ovarian it was 30.1 µM; in the test on NCI-H23 lung it was 55.4 µM; with PC-3 prostate it was 79.6 µM.

Turning to `CCN(CC)/C(Cl)=C(Cl)\C(=C1\Nc2ccc(OC)cc21)[N+](=O)[O-]`, the TGI with OVCAR-5 ovarian is greater than 100 µM; with HCT-116 colon, greater than 100 µM; with MOLT-4 leukemia, 85.2 µM; in the test with SNB-19 CNS it was greater than 100 µM; with RXF 393 renal, 72.9 µM; in the test on NCI/ADR-RES ovarian, greater than 100 µM. Also, the TGI with SK-MEL-28 melanoma is greater than 100 µM; in the test with NCI-H522 lung, 67.3 µM; in the test with T-47D breast it was greater than 100 µM; in the test on U251 CNS, greater than 100 µM; in the test on NCI-H226 lung it was 69.2 µM; in the test with SK-MEL-5 melanoma it was greater than 100 µM. Also, the TGI was greater than 100 µM with HOP-92 NSCLC; greater than 100 µM in the test with SN12C renal; 57.3 µM with OVCAR-3 ovarian; greater than 100 µM with NCI-H23 lung; greater than 100 µM in the test with PC-3 prostate.

In the case of `Cn1ccc(C(=O)NCCOCCNC(=O)c2ccn(C)c(=O)c2O)c(O)c1=O`, the TGI with HCT-116 colon, in the test with SNB-19 CNS, with NCI/ADR-RES ovarian, in the test on SK-MEL-28 melanoma, in the test with NCI-H522 lung and in the test on T-47D breast was greater than 100 µM throughout. In addition, the TGI in the test with U251 CNS, in the test on NCI-H226 lung, in the test with RPMI-8226 leukemia, in the test on SK-MEL-5 melanoma, in the test on HOP-92 NSCLC and with SN12C renal was greater than 100 µM each time. Moreover, the total growth inhibition concentration (TGI) in the test on NCI-H23 lung and with PC-3 prostate was greater than 100 µM each time.

In the case of `CCOC(=O)C1=C(Nc2cccc(OC)c2)OCC1=O`, the TGI with HCT-116 colon, with MOLT-4 leukemia, in the test with SNB-19 CNS, in the test on RXF 393 renal, in the test on NCI/ADR-RES ovarian and in the test with SK-MEL-28 melanoma was greater than 100 µM in each case. The TGI with T-47D breast, in the test on U251 CNS, with NCI-H226 lung, with RPMI-8226 leukemia, in the test with SK-MEL-5 melanoma and with HOP-92 NSCLC was greater than 100 µM in each case. The TGI in the test on NCI-H23 lung and with PC-3 prostate was greater than 100 µM throughout.

With `COc1ccc2c3c1O[C@H]1C(O)CCC4(O)[C@@H](C2)NCC[C@]314` (some centres not stated), the TGI with OVCAR-5 ovarian, in the test with HCT-116 colon, with MOLT-4 leukemia, in the test with SNB-19 CNS, in the test on NCI/ADR-RES ovarian and in the test with SK-MEL-28 melanoma was greater than 100 µM each time. Further, the TGI in the test with NCI-H522 lung, with T-47D breast, in the test on U251 CNS, in the test on NCI-H226 lung, in the test on RPMI-8226 leukemia and in the test on SK-MEL-5 melanoma was greater than 100 µM in each case. Besides, the TGI in the test with HOP-92 NSCLC, with SN12C renal, in the test on OVCAR-3 ovarian, in the test with NCI-H23 lung and in the test on PC-3 prostate was greater than 100 µM each time.

For `COc1ccc2c(c1)CCc1c-2[nH]c2ccc(OC)cc12`, the TGI with OVCAR-5 ovarian, in the test with HCT-116 colon, with MOLT-4 leukemia, with SNB-19 CNS, with NCI/ADR-RES ovarian and in the test on SK-MEL-28 melanoma was greater than 100 µM in each case. Besides, the TGI in the test on NCI-H522 lung, with T-47D breast, in the test with U251 CNS, with NCI-H226 lung, in the test on RPMI-8226 leukemia and with SK-MEL-5 melanoma was greater than 100 µM throughout. Further, the TGI in the test with HOP-92 NSCLC, in the test on SN12C renal, in the test on OVCAR-3 ovarian, with NCI-H23 lung and in the test with PC-3 prostate was greater than 100 µM throughout.

The values above are taken from PubChem BioAssay (NCI).
